For one experiment, the target named is GST-Bcl-XL (Homo sapiens, UniProt Q07817). Description: TR-FRET binding assay, GST-Bcl-XL with F-Bak peptide probe. Conditions: TR-FRET Binding Affinity. In short, it runs like this: (§1)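 Competitive TR-FRET: GST-fusion protein, fluorescent Bak peptide probe and Tb-labelled anti-GST antibody incubated with compound dilution series (starting 50 μM as 2× stock, 10% DMSO) for 3 h at RT. Excitation 340/35 nm; Ki derived via Wang's exact competitive-binding equation.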
Chain of GST-Bcl-XL (Q07817 whole entry, the tested form may be a part): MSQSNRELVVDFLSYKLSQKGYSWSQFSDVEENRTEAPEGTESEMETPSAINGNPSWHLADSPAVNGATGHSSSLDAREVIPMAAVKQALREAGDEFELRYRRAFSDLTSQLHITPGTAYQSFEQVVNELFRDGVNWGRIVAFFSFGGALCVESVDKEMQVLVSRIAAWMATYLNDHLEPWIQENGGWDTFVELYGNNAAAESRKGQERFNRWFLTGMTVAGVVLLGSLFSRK

The next experiment deals with GST-Bcl-2 (Homo sapiens, UniProt P10415). Description: TR-FRET binding assay, GST-Bcl-2 with F-Bak peptide probe. The conditions noted are these: for Ki: TR-FRET Binding Affinity; for Binding selectivity ratio (Bcl-XL Ki/Bcl-2 Ki): TR-FRET, Bcl-XL Ki divided by Bcl-2 Ki. In short, it runs like this:
as §1

SMILES strings stand for the structures. Bounds are passed on as bounds.

Chain of GST-Bcl-2 (P10415 whole entry): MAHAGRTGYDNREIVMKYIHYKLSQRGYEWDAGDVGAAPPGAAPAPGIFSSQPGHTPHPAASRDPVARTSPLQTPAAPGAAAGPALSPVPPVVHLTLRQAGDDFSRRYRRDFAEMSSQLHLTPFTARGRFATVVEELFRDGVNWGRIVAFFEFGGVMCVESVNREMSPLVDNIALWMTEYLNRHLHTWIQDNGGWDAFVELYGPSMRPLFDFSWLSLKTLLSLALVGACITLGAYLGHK

The term Ki denotes a measure of affinity in units of concentration, obtained from inhibition or displacement. `CC1(C)CCC(CN2CCN(c3ccc(C(=O)NS(=O)(=O)c4ccc(OCC5CCOCC5)c(Cl)c4)c(Oc4cccc5[nH]cnc45)c3)CC2)=C(c2ccc(Cl)cc2)C1` [Example 516, 2-(1H-benzimidazol-4-yloxy)-4-(4-{[2-(4-chlorophenyl)-4,4-dimethylcyclohex-1-en-1-yl]methyl}piperazin-1-yl)-N-{[3-chloro-4-(tetrahydro-2H-pyran-4-ylmethoxy)phenyl]sulfonyl}benzamide]: the Ki at GST-Bcl-XL was 4.82 nM; at GST-Bcl-2, under 0.01 nM. The “Binding selectivity ratio (Bcl-XL Ki/Bcl-2 Ki)” value (from here on “Binding selectivity ratio”) at GST-Bcl-2 was over 482.3.
Turning to `CC1(C)CCC(CN2CCN(c3ccc(C(=O)NS(=O)(=O)c4ccc(OCC5(F)CCN(C6COC6)CC5)c(Cl)c4)c(Oc4cccc5[nH]ncc45)c3)CC2)=C(c2ccc(Cl)cc2)C1` [Example 517, N-[(3-chloro-4-{[4-fluoro-1-(oxetan-3-yl)piperidin-4-yl]methoxy}phenyl)sulfonyl]-4-(4-{[2-(4-chlorophenyl)-4,4-dimethylcyclohex-1-en-1-yl]methyl}piperazin-1-yl)-2-(1H-indazol-4-yloxy)benzamide], on GST-Bcl-XL, the Ki amounted to 6.08 nM. Further, at GST-Bcl-2, the Ki was under 0.01 nM and the “Binding selectivity ratio” value is given as over 607.7.
Compound `CC1(C)CCC(CN2CCN(c3ccc(C(=O)NS(=O)(=O)c4cnc(OCC5(F)CCC(O)CC5)c(Cl)c4)c(Oc4cccc5[nH]ncc45)c3)CC2)=C(c2ccc(Cl)cc2)C1` (stereo not drawn) [Example 518, N-({5-chloro-6-[(cis-1-fluoro-4-hydroxycyclohexyl)methoxy]pyridin-3-yl}sulfonyl)-4-(4-{[2-(4-chlorophenyl)-4,4-dimethylcyclohex-1-en-1-yl]methyl}piperazin-1-yl)-2-(1H-indazol-4-yloxy)benzamide] gave an inhibition constant (Ki) at GST-Bcl-XL of 2.55 nM. In addition, at GST-Bcl-2, the Ki is under 0.01 nM and the “Binding selectivity ratio” value was over 254.6.
In the case of `CC1(C)CCC(CN2CCN(c3ccc(C(=O)NS(=O)(=O)c4ccc(OCC5(F)CCOCC5)c([N+](=O)[O-])c4)c(Oc4cccc5[nH]nnc45)c3)CC2)=C(c2ccc(Cl)cc2)C1` [Example 519, 2-(1H-benzotriazol-4-yloxy)-4-(4-{[2-(4-chlorophenyl)-4,4-dimethylcyclohex-1-en-1-yl]methyl}piperazin-1-yl)-N-({4-[(4-fluorotetrahydro-2H-pyran-4-yl)methoxy]-3-nitrophenyl}sulfonyl)benzamide], the inhibition constant Ki was 311 nM at GST-Bcl-XL and 0.012 nM at GST-Bcl-2. Further, at GST-Bcl-2, the “Binding selectivity ratio” value was 25935.4.
With `CC1(C)CCC(CN2CCN(c3ccc(C(=O)NS(=O)(=O)c4cnc(OC[C@@H]5C[C@H]6C[C@@H]5C[C@@]6(C)O)c(Cl)c4)c(Oc4cccc5[nH]ncc45)c3)CC2)=C(c2ccc(Cl)cc2)C1` [Example 520, N-[(5-chloro-6-{[(1R,2R,4R,5R)-5-hydroxy-5-methylbicyclo[2.2.1]hept-2-yl]methoxy}pyridin-3-yl)sulfonyl]-4-(4-{[2-(4-chlorophenyl)-4,4-dimethylcyclohex-1-en-1-yl]methyl}piperazin-1-yl)-2-(1H-indazol-4-yloxy)benzamide], the inhibitory constant (Ki) was 15.4 nM on GST-Bcl-XL and under 0.01 nM on GST-Bcl-2. For the same compound, the “Binding selectivity ratio” value on GST-Bcl-2 is recorded as over 1537.8.
At GST-Bcl-XL, `O=C(NS(=O)(=O)c1cnc(OCC2(F)CCOCC2)c(Cl)c1)c1ccc(N2CCN(CC3=C(c4ccc(Cl)cc4)CCC(F)(F)C3)CC2)cc1Oc1cccc2[nH]ncc12` [Example 521, N-({5-chloro-6-[(4-fluorotetrahydro-2H-pyran-4-yl)methoxy]pyridin-3-yl}sulfonyl)-4-(4-{[2-(4-chlorophenyl)-5,5-difluorocyclohex-1-en-1-yl]methyl}piperazin-1-yl)-2-(1H-indazol-4-yloxy)benzamide] returned a Ki of 4.67 nM. At GST-Bcl-2, the Ki is under 0.01 nM and the “Binding selectivity ratio” value is recorded as over 466.9.
Regarding `O=C(NS(=O)(=O)c1cnc(OCC2(F)CCN(C3COC3)CC2)c(Cl)c1)c1ccc(N2CCN(CC3=C(c4ccc(Cl)cc4)CCC(F)(F)C3)CC2)cc1Oc1cccc2[nH]ncc12` [Example 522, N-[(5-chloro-6-{[4-fluoro-1-(oxetan-3-yl)piperidin-4-yl]methoxy}pyridin-3-yl)sulfonyl]-4-(4-{[2-(4-chlorophenyl)-5,5-difluorocyclohex-1-en-1-yl]methyl}piperazin-1-yl)-2-(1H-indazol-4-yloxy)benzamide], the inhibition constant (Ki) on GST-Bcl-XL worked out at 2.08 nM. Also, on GST-Bcl-2, the Ki is under 0.01 nM and the “Binding selectivity ratio” value was over 207.9.
The corresponding values for `CC1(C)CCC(CN2CCN(c3ccc(C(=O)NS(=O)(=O)c4ccc(NCC5CCOCC5)c([N+](=O)[O-])c4)c(Oc4cccc5[nH]nnc45)c3)CC2)=C(c2ccc(Cl)cc2)C1` [Example 523, 2-(1H-benzotriazol-4-yloxy)-4-(4-{[2-(4-chlorophenyl)-4,4-dimethylcyclohex-1-en-1-yl]methyl}piperazin-1-yl)-N-({3-nitro-4-[(tetrahydro-2H-pyran-4-ylmethyl)amino]phenyl}sulfonyl)benzamide] are 49.4 nM, under 0.01 nM and over 4944.4.
`O=C(NS(=O)(=O)c1ccc(NCC2CCOCC2)c([N+](=O)[O-])c1)c1ccc(N2CCN(CC3=C(c4ccc(Cl)cc4)CCC(F)(F)C3)CC2)cc1Oc1cccc2[nH]ncc12` [Example 524, 4-(4-{[2-(4-chlorophenyl)-5,5-difluorocyclohex-1-en-1-yl]methyl}piperazin-1-yl)-2-(1H-indazol-4-yloxy)-N-({3-nitro-4-[(tetrahydro-2H-pyran-4-ylmethyl)amino]phenyl}sulfonyl)benzamide]: affinity at GST-Bcl-XL was put at a Ki of 22.2 nM. For the same compound, on GST-Bcl-2, the Ki was under 0.01 nM and the “Binding selectivity ratio” value is given as over 2218.4.
The compound `CC1(C)CCC(CN2CCN(c3ccc(C(=O)NS(=O)(=O)c4ccc(NC[C@H]5CC[C@](C)(O)CC5)c([N+](=O)[O-])c4)c(Oc4cccc5[nH]ncc45)c3)CC2)=C(c2ccc(Cl)cc2)C1` [Example 525, 4-(4-{[2-(4-chlorophenyl)-4,4-dimethylcyclohex-1-en-1-yl]methyl}piperazin-1-yl)-N-[(4-{[(trans-4-hydroxy-4-methylcyclohexyl)methyl]amino}-3-nitrophenyl)sulfonyl]-2-(1H-indazol-4-yloxy)benzamide] gave a Ki on GST-Bcl-XL of 19 nM. Besides, on GST-Bcl-2, the inhibition constant (Ki) is under 0.01 nM and the “Binding selectivity ratio” value is recorded as over 1898.4.
In the case of `CC1(C)CCC(CN2CCN(c3ccc(C(=O)NS(=O)(=O)c4ccc(NC[C@H]5CC[C@@](C)(O)CC5)c([N+](=O)[O-])c4)c(Oc4cccc5[nH]ncc45)c3)CC2)=C(c2ccc(Cl)cc2)C1` [Example 526, 4-(4-{[2-(4-chlorophenyl)-4,4-dimethylcyclohex-1-en-1-yl]methyl}piperazin-1-yl)-N-[(4-{[(cis-4-hydroxy-4-methylcyclohexyl)methyl]amino}-3-nitrophenyl)sulfonyl]-2-(1H-indazol-4-yloxy)benzamide], the Ki at GST-Bcl-XL is 4.68 nM; at GST-Bcl-2, under 0.01 nM. In addition, the “Binding selectivity ratio” value on GST-Bcl-2 is over 467.9.
With `CC1(C)CCC(CN2CCN(c3ccc(C(=O)NS(=O)(=O)c4ccc(NC[C@H]5CN(C6CC6)CCO5)c([N+](=O)[O-])c4)c(Oc4cccc5[nH]nnc45)c3)CC2)=C(c2ccc(Cl)cc2)C1` [Example 527, 2-(1H-benzotriazol-4-yloxy)-4-(4-{[2-(4-chlorophenyl)-4,4-dimethylcyclohex-1-en-1-yl]methyl}piperazin-1-yl)-N-{[4-({[(2S)-4-cyclopropylmorpholin-2-yl]methyl}amino)-3-nitrophenyl]sulfonyl}benzamide], the results for the inhibition constant (Ki) at GST-Bcl-XL and at GST-Bcl-2 were 4.22 nM and under 0.01 nM, respectively. For the same compound, the “Binding selectivity ratio” value at GST-Bcl-2 is over 421.9.
Turning to `CC1(C)CCC(CN2CCN(c3ccc(C(=O)NS(=O)(=O)c4cnc(OCC5(F)CCN(C6COC6)CC5)c(Cl)c4)c(Oc4cccc5[nH]ncc45)c3)CC2)=C(c2ccc(Cl)cc2)C1` [Example 528, N-[(5-chloro-6-{[4-fluoro-1-(oxetan-3-yl)piperidin-4-yl]methoxy}pyridin-3-yl)sulfonyl]-4-(4-{[2-(4-chlorophenyl)-4,4-dimethylcyclohex-1-en-1-yl]methyl}piperazin-1-yl)-2-(1H-indazol-4-yloxy)benzamide], affinity on GST-Bcl-XL was put at a Ki of 3.67 nM. Further, on GST-Bcl-2, the Ki was under 0.01 nM and the “Binding selectivity ratio” value is over 366.9.
With `CC1(C)CCC(CN2CCN(c3ccc(C(=O)NS(=O)(=O)c4ccc(NC[C@H]5CN(C6CC6)CCO5)c([N+](=O)[O-])c4)c(Oc4cccc5[nH]ncc45)c3)CC2)=C(c2ccc(Cl)cc2)C1` [Example 529, 4-(4-{[2-(4-chlorophenyl)-4,4-dimethylcyclohex-1-en-1-yl]methyl}piperazin-1-yl)-N-{[4-({[(2S)-4-cyclopropylmorpholin-2-yl]methyl}amino)-3-nitrophenyl]sulfonyl}-2-(1H-indazol-4-yloxy)benzamide], the inhibition constant Ki at GST-Bcl-XL was 8.28 nM. On GST-Bcl-2, the Ki is under 0.01 nM and the “Binding selectivity ratio” value is listed as over 828.4.
Compound `CC1(C)CCC(CN2CCN(c3ccc(C(=O)NS(=O)(=O)c4ccc(NC[C@H]5CN(C6CC6)CCO5)c([N+](=O)[O-])c4)c(Oc4cccc5[nH]cnc45)c3)CC2)=C(c2ccc(Cl)cc2)C1` [Example 530, 2-(1H-benzimidazol-4-yloxy)-4-(4-{[2-(4-chlorophenyl)-4,4-dimethylcyclohex-1-en-1-yl]methyl}piperazin-1-yl)-N-{[4-({[(2S)-4-cyclopropylmorpholin-2-yl]methyl}amino)-3-nitrophenyl]sulfonyl}benzamide] gave an inhibition constant Ki on GST-Bcl-XL of 76.7 nM. Besides, on GST-Bcl-2, the Ki was under 0.01 nM and the “Binding selectivity ratio” value is given as over 7666.0.

The values are drawn from patent publication US9073855B2, “BCL-2 selective apoptosis-inducing agents for the treatment of cancer and immune diseases” (AbbVie Inc., priority 2008, dated 2015).
